These molecules were tested against human P2X3 receptor (Homo sapiens (Human), UniProt P56373) (assay: Evaluation of human P2X3 receptor inhibitory activity (Fluo-3 calcium fluorescence, FDSS 3000, ATP stimulation)). Settings: C6BU-1 cells stably expressing human P2X3 receptor.
Type: cell-based
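Also: stimulus was 50 nM ATP with fluorescence followed for 3 min, and the response per well was peak post-ATP fluorescence divided by the reading at measurement start.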

Sequence of human P2X3 receptor (P56373 whole entry): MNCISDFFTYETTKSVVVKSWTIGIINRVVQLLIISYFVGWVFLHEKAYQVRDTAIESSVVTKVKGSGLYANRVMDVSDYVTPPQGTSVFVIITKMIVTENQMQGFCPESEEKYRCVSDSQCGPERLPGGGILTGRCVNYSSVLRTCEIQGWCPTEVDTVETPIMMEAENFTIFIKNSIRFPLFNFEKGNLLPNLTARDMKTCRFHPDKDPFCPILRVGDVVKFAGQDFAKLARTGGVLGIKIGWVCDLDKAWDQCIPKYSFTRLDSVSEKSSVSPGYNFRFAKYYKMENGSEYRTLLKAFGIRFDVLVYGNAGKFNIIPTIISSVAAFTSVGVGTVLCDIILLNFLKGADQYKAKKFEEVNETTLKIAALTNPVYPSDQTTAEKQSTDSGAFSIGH

In order of falling IC50:
1. CC(C)n1c(=O)n(Cc2ccc(Cl)cc2)c(=O)n(Cc2ccc(C(F)(F)F)cc2)c1=O [Compound I-1289, 1-(4-chlorobenzyl)-3-isopropyl-5-(4-trifluoromethylbenzyl)-1,3,5-triazinane-2,4,6-trione]  510 nM
2. COC(=O)[C@@H](C)Cn1c(=O)[nH]/c(=N\c2ccc(CCO)cc2)n(Cc2ccc(Cl)cc2)c1=O [Compound I-0657]  471 nM
3. COC(=O)[C@@H](C)Cn1c(=O)[nH]/c(=N\c2ccc(N3CCCCCC3)cc2)n(Cc2ccc(Cl)cc2)c1=O [Compound I-1233]  325 nM
4. Cc1ccc(Cn2c(=O)n(CCC(=O)O)c(=O)[nH]/c2=N\c2ccc3c(ccc(=O)n3C)c2)cc1 [Compound I-2128]  287 nM
5. Cc1ccc(Cn2c(=O)n(C)c(=O)[nH]/c2=N\c2ccc(Oc3ccc(C(=O)O)cc3)cc2)cc1 [Compound I-2061]  148 nM
6. CC(C)Oc1ccc(/N=c2\[nH]c(OCC(=O)O)nc(=O)n2Cc2ccc(Cl)cc2)cc1F [Compound I-0581]  145 nM
7. O=C(O)c1cccc(Oc2ccc(/N=c3\[nH]c(=O)[nH]c(=O)n3Cc3ccc(Cl)cc3)cc2)c1 [Compound I-1923]  84 nM
8. CC(C)Oc1ccc(/N=c2\[nH]c(=O)n(C[C@H](C)C(=O)O)c(=O)n2Cc2ccc(F)cc2)cc1F [Compound I-0637]  69 nM
9. COC(=O)[C@@H](C)Cn1c(=O)[nH]/c(=N\c2ccc3c(c2)COCO3)n(Cc2ccc(Cl)cc2)c1=O [Compound I-0744]  53 nM
10. Cc1ccc(Cn2c(=O)n(CCC(=O)O)c(=O)[nH]/c2=N\c2ccc(CC(C)C)c(F)c2)cc1 [Compound I-1299]  51 nM
11. CNC(=O)Cn1c(=O)[nH]/c(=N\c2ccc(OCC3CC3)cc2)n(Cc2ccc(Cl)cc2)c1=O [Compound I-1942]  49 nM
12. Cc1ccc(Cn2c(=O)n(CCC(=O)O)c(=O)[nH]/c2=N\c2ccc(Oc3ccc(C)nc3)cc2)cc1 [Compound I-1356]  48 nM
13. Cc1cc(/N=c2\[nH]c(=O)n(CC[C@H](NC(=O)OC(C)(C)C)C(=O)O)c(=O)n2Cc2ccc(Cl)cc2)ccc1OC(C)C [Compound I-0732, (S)-1-(4-chlorobenzyl)-3-(3-t-butoxycarbonylamino-3-hydroxycarbonylpropyl)-6-(3-mehyl-4-isopropoxyphenylimino)-1,3,5-triazinane-2,4-dion]  41 nM
14. CC(C)Oc1ccc(/N=c2\[nH]c(=O)n(CC(=O)N3CCOCC3)c(=O)n2Cc2ccc(Cl)cc2)cc1Cl [Compound I-0739]  29 nM
15. Cc1ccc(Cn2c(=O)n(CCCO)c(=O)[nH]/c2=N\c2ccc(O[C@H](C)C(F)(F)F)cc2)cc1 [Compound I-1953]  16 nM
16. CCn1c(=O)[nH]/c(=N\c2ccc(Oc3cccc(C(=O)OC)c3)cc2)n(Cc2ccc(C)cc2)c1=O [Compound I-2028]  13 nM
17. COC(=O)[C@@H](C)[C@@H](C)n1c(=O)[nH]/c(=N\c2ccc(OC3CCC3)cc2)n(Cc2ccc(C)cc2)c1=O [Compound I-1453]  13 nM
18. CCn1c(=O)[nH]/c(=N\c2ccc(Oc3cncc(C(=O)OC)c3)cc2)n(CC2CCC3(CC2)CC3)c1=O [Compound I-2173]  12 nM
19. CCOC(=O)c1nc(Cn2c(=O)[nH]/c(=N\c3ccc(OC(C)C)c(C)c3)n(Cc3ccc(Cl)cc3)c2=O)cs1 [Compound I-0785]  11 nM
20. Cc1ccc(Cn2c(=O)n(CCC(=O)O)c(=O)[nH]/c2=N\c2ccc(Oc3ccncc3)cc2)cc1 [Compound I-1228]  9 nM
21. COC(=O)[C@H](C)[C@H](C)n1c(=O)[nH]/c(=N\c2ccc(OC(C)C)c(Br)c2)n(Cc2ccc(C)cc2)c1=O [Compound I-1307]  7 nM
22. O=C(O)c1cncc(Oc2ccc(/N=c3\[nH]c(=O)n(CC(F)F)c(=O)n3Cc3ccc(Cl)cc3)cc2)c1 [Compound I-2215]  6 nM
23. CCn1c(=O)[nH]/c(=N\c2ccc(Oc3ccnc(NC(=O)NC4CC4)c3)cc2)n(Cc2ccc(Cl)cc2)c1=O [Compound I-2213]  2 nM

Same assay, conditions: C6BU-1 cells stably expressing human P2X3 receptor, Fluo-3 fluorescence, FDSS 3000

In order of falling IC50:
1. C/C=C/c1ccc(Cn2c(=O)n(C[C@H](C)C(=O)O)c(=O)[nH]/c2=N\c2ccc(OC(C)C)cc2)cc1 [Compound I-1160]  973 nM
2. C/C=C/c1ccc(Cn2c(=O)n(C[C@H](C)C(=O)OC)c(=O)[nH]/c2=N\c2ccc(OC(C)C)cc2)cc1 [Compound I-1141]  911 nM
3. C/C=C\c1ccc(Cn2c(=O)n(C[C@H](C)C(=O)OC)c(=O)[nH]/c2=N\c2ccc(OC(C)C)cc2)cc1 [Compound I-1142]  802 nM
4. C[C@@H](C(=O)O)[C@H](C)n1c(=O)[nH]/c(=N\c2ccc3c(c2)OCC(=O)N3)n(Cc2ccc(Cl)cc2)c1=O [Compound I-1786]  621 nM
5. Cc1ccc(Cn2c(=O)n(C[C@H](C)C(=O)O)c(=O)[nH]/c2=N\c2ccc(C3=CCCC3)cc2)cc1 [Compound I-1114]  214 nM
6. COC(=O)[C@@H](C)Cn1c(=O)[nH]/c(=N\c2ccc(Br)cc2)n(Cc2ccc(C)cc2)c1=O [Compound I-1076]  177 nM
7. C[C@@H](Cn1c(=O)[nH]/c(=N\c2ccc(C=C3CCCC3)cc2)n(Cc2ccc(Cl)cc2)c1=O)C(=O)O [Compound I-1099]  70 nM
8. Cc1ccc(Cn2c(=O)n([C@@H](C)[C@@H](C)C(=O)O)c(=O)[nH]/c2=N\c2ccc(OC(C)C)cc2)cc1 [Compound I-1082]  63 nM
9. CCOC(=O)C1(Cn2c(=O)[nH]/c(=N\c3ccc(OC(C)C)cc3)n(Cc3ccc(Cl)cc3)c2=O)CC1 [Compound I-0987]  15 nM
10. CCn1c(=O)[nH]/c(=N\c2ccc(Oc3ccc(O)nc3)cc2)n(Cc2ccc(Cl)cc2)c1=O [Compound I-1848]  14 nM
11. CCc1oc2ccc(/N=c3\[nH]c(=O)n(CC(=O)OC)c(=O)n3Cc3ccc(Cl)cc3)cc2c1C [Compound I-1564]  13 nM
12. CCc1oc2ccc(/N=c3\[nH]c(=O)n(C[C@H](C)NC(C)=O)c(=O)n3Cc3ccc(Cl)cc3)cc2c1C [Compound I-1666]  10 nM
13. CCc1oc2ccc(/N=c3\[nH]c(=O)n(CC(C)(C)C(=O)O)c(=O)n3Cc3ccc(C)cc3)cc2c1C [Compound I-1582]  7 nM
14. COC(=O)CC1(Cn2c(=O)[nH]/c(=N\c3ccc(OC(C)C)c(Cl)c3)n(Cc3ccc(C)cc3)c2=O)CC1 [Compound I-0979]  6 nM
15. Cc1ccc(Cn2c(=O)n(C[C@H](C)C(=O)O)c(=O)[nH]/c2=N\c2ccc(Oc3ccn(C)c(=O)c3)cc2)cc1 [Compound I-1595]  6 nM
16. CCc1oc2ccc(/N=c3\[nH]c(=O)n(CCCC(N)=O)c(=O)n3Cc3ccc(Cl)cc3)cc2c1C [Compound I-1710]  6 nM
17. CCc1nc2ccc(/N=c3\[nH]c(=O)n(CC(C)(C)C(=O)OC)c(=O)n3Cc3ccc(C)cc3)cc2s1 [Compound I-1573]  4 nM

Same assay, conditions: human P2X3 receptor, Test Example 1

In order of falling IC50:
1. Cc1ccc(Cn2c(=O)n(C[C@H](C)C(=O)O)c(=O)[nH]/c2=N\c2ccc(C3CC3)c(Cl)c2)cc1 [Compound I-1489]  254 nM
2. Cn1c(=O)[nH]/c(=N\c2ccc(Oc3cc(C(=O)O)n[nH]3)cc2)n(Cc2ccc(Cl)cc2)c1=O [Compound I-2411]  166 nM
3. CC(C)Oc1ccc(/N=c2\[nH]c(=S)n(C(C)C)c(=O)n2Cc2ccc(Cl)cc2)cc1Cl [Compound I-2257, 1-(4-chlorobenzyl)-3-isopropyl-6-(3-chloro-4-isopropoxyphenylimino)-4-thioxo-1,3,5-triazinane-2-one]  151 nM
4. O=c1[nH]/c(=N\c2ccc(Oc3ccn[nH]3)cc2)n(Cc2ccc(Cl)cc2)c(=O)n1C[C@H](O)CO [Compound I-2453]  64 nM
5. COC(=O)[C@@H](C)Cn1c(=O)[nH]/c(=N\c2ccc(CC(C)C)cc2)n(Cc2ccc(C)cc2)c1=O [Compound I-0860]  62 nM
6. CCn1c(=O)[nH]/c(=N\c2ccc(Oc3ccnc(CN(C)C)c3)cc2)n(Cc2ccc(Cl)cc2)c1=O [Compound I-2244]  59 nM
7. CCCOc1ccc(/N=c2\[nH]c(=O)n(CCCC(=O)O)c(=O)n2Cc2ccc(C)cc2)cc1Cl [Compound I-0873]  47 nM
8. COC(=O)[C@@H](C)Cn1c(=O)[nH]/c(=N\c2ccc(CC(C)(C)F)c(Cl)c2)n(Cc2ccc(C)cc2)c1=O [Compound I-1528]  32 nM
9. CCn1c(=O)[nH]/c(=N\c2ccc(Oc3ccnc(C#N)c3)cc2)n(Cc2ccc(Cl)cn2)c1=O [Compound I-2372]  32 nM
10. Cc1ccc(Cn2c(=O)n(C[C@H](C)C(=O)O)c(=O)[nH]/c2=N\c2ccc(Oc3ccc(O)nc3)cc2)cc1 [Compound I-1536]  24 nM
11. Cc1ccc(Cn2c(=O)n(CCC(=O)O)c(=O)[nH]/c2=N\c2ccc3nc(C)sc3c2)cc1 [Compound I-1521]  22 nM
12. O=C(O)CCn1c(=O)[nH]/c(=N\c2ccc(Oc3ncccn3)cc2)n(Cc2ccc(Cl)cc2)c1=O [Compound I-2557]  19 nM
13. CCCOc1ccc(/N=c2\[nH]c(=O)n(C[C@H](C)C(=O)O)c(=O)n2Cc2ccc(C)cc2)cc1Cl [Compound I-0840]  17 nM
14. CCn1c(=O)[nH]/c(=N\c2ccc(Oc3cccc(C#N)n3)cc2)n(Cc2ccc(F)cc2)c1=O [Compound I-2466]  16 nM
15. CNC(=O)Cn1c(=O)[nH]/c(=N\c2ccc(Oc3cnsn3)cc2)n(Cc2ccc(Cl)cc2)c1=O [Compound I-2676]  13 nM
16. Cn1cc(Oc2ccc(/N=c3\[nH]c(=O)n(CCC(=O)O)c(=O)n3Cc3ccc(Cl)cc3)cc2)ccc1=O [Compound I-1512]  13 nM
17. CCOC(=O)C(F)(F)Cn1c(=O)[nH]/c(=N\c2ccc(OCC)c(Cl)c2)n(Cc2ccc(C)cc2)c1=O [Compound I-0856]  12 nM
18. O=C(O)c1cc(Oc2ccc(/N=c3\[nH]c(=O)n(C4CCC4)c(=O)n3Cc3ccc(Cl)cc3)cc2)ccn1 [Compound I-2484]  8 nM
19. O=c1[nH]/c(=N\c2ccc(Oc3ccon3)c(F)c2)n(Cc2ccc(Cl)cc2)c(=O)n1C[C@H](O)CO [Compound I-2440]  5 nM
20. O=C(Cn1c(=O)[nH]/c(=N\c2ccc(Oc3cccc(F)n3)cc2)n(Cc2ccc(Cl)cc2)c1=O)NCCO [Compound I-2679]  5 nM
21. O=C(Cn1c(=O)[nH]/c(=N\c2ccc(Oc3ncns3)cc2)n(Cc2ccc(Cl)cc2)c1=O)NCCO [Compound I-2674]  5 nM
22. Cc1nsc(Oc2ccc(/N=c3\[nH]c(=O)n(CC(C)(CO)CO)c(=O)n3Cc3ccc(Cl)cc3)cc2)n1 [Compound I-2576]  3 nM
